# Like-named read-outs stand apart in the source and are kept apart here.
# Experiments:
# Format in all cases: cell-based
# [1] = test system: Du145 (prostate carcinoma); test: cells; settings: read-out: GI50 Du145
# HT29 (colon carcinoma) = test: cells; settings: read-out: GI50 HT29
# [2] = test system: panel of eleven cancer cell lines and one normal cell line; test: MTT cytotoxicity, panel of eleven cancer cell lines and one normal cell line; settings: for activity in initial screen: 25 μM drug concentration; for levels of toxicity: against HT29, U87, A2780, MIA and SMA cell lines; for GI50: read-out: average GI50
# U87 (glioblastoma) = test: cells; settings: read-out: GI50 U87
# [3] = test system: MIA (pancreatic carcinoma); test: cells; settings: read-out: GI50 MIA
# SJ-G2 (glioblastoma) = test: cells; settings: read-out: GI50 SJ-G2
# BE2-C (neuroblastoma) = test: cells; settings: read-out: GI50 BE2-C
# MCF-7 (breast carcinoma) = test: cells; settings: read-out: GI50 MCF-7
# MCF10A (normal breast) = test: cells; settings: read-out: GI50 MCF10A
# [4] = test system: SMA (spontaneous murine astrocytoma); test: cells; settings: read-out: GI50 SMA
# [5] = test system: A2780 (ovarian carcinoma); test: cells; settings: read-out: GI50 A2780
# H460 (lung carcinoma) = test: cells; settings: read-out: GI50 H460
# A431 (skin carcinoma) = test: cells; settings: read-out: GI50 A431
# [6] = Table 5, normal breast cell line, 72 h exposure, MTT
Compound,"GI50 ([1]; Homo sapiens, DU-145, 72 h) [nM]","GI50 (HT29 (colon carcinoma); Homo sapiens, HT-29, 72 h) [nM]",GI50 (U87 (glioblastoma); 72 h) [nM],GI50 ([3]; 72 h) [nM],"GI50 (SJ-G2 (glioblastoma); SJ-G2, 72 h) [nM]","GI50 (BE2-C (neuroblastoma); Homo sapiens, BE(2)-C, 72 h) [nM]","GI50 (MCF-7 (breast carcinoma); Homo sapiens, MCF7, 72 h) [nM]","GI50 ([4]; Mus musculus, 72 h) [nM]","GI50 ([5]; Homo sapiens, A2780, 72 h) [nM]","GI50 (H460 (lung carcinoma); Homo sapiens, NCI-H460, 72 h) [nM]","GI50 (A431 (skin carcinoma); Homo sapiens, A-431, 72 h) [nM]",activity in initial screen [2],levels of toxicity [2],GI50 [2] [nM],"GI50 (MCF10A (normal breast); Homo sapiens, MCF-10A, 72 h) [nM]",other results
"C#CC(=O)N(c1ccccc1)C(C(=O)NC1CCCCC1)c1ccccc1 (racemic) [Compound 12, (RS)-N-(2-(Cyclohexylamino)-2-oxo-1-phenylethyl)-N-phenylpropiolamide]",180 ± 10,270 ± 10,190 ± 10,250 ± 20,3000 ± 100,500 ± 200,1600 ± 290,250,230 ± 20,3600 ± 600,1000 ± 200,sufficiently promising activity,sub-micro molar,1160,2900 ± 100,–
"CC(=O)N(c1ccccc1)C(C(=O)NCc1ccccc1)c1ccccc1 (racemic) [Compound 17e, (RS)-N-Benzyl-2-phenyl-2-(N-phenylacetamido)acetamide]",> 50000,> 50000,> 50000,8500 ± 900,15000 ± 4000,25000 ± 9000,> 50000,> 50000,16000,21000,13000 ± 1000,sufficiently promising activity,–,–,15000 ± 1000,–
"C#CC(=O)N(c1ccccc1)C(C(=O)NC1CCCCC1)c1cccc(OC)c1OC (racemic) [Compound 20, (RS)-N-(2-(Cyclohexylamino)-1-(2,3-dimethoxyphenyl)-2-oxoethyl)-N-phenylpropiolamide]",660 ± 240,470 ± 120,710 ± 64,460 ± 100,1800 ± 88,460 ± 38,1800 ± 67,–,490 ± 95,2300 ± 300,1200 ± 410,–,–,–,7600 ± 1800,–
"N-(2-cyclohexylamino)-1-(4-methoxyphenyl)-2-oxoethyl-N-(3,5-dimethoxyphenyl)propiolamide [Compound 1, reference compound]",–,–,–,–,–,–,–,–,–,–,–,–,–,–,–,"GI50 ([1]; Table 5, 72 h exposure, MTT): 110 ± 50 nM; GI50 (HT29 (colon carcinoma); Table 5, 72 h exposure, MTT): 70 ± 10 nM; GI50 ([2]; across the cancer cell lines evaluated): ≤ 1000 nM; GI50 (U87 (glioblastoma); Table 5, 72 h exposure, MTT): 60 ± 20 nM; GI50 ([3]; Table 5, 72 h exposure, MTT): 60 ± 30 nM; GI50 (SJ-G2 (glioblastoma); Table 5, 72 h exposure, MTT): 1700 ± 260 nM; GI50 (BE2-C (neuroblastoma); Table 5, 72 h exposure, MTT): 30 ± 10 nM; GI50 (MCF-7 (breast carcinoma); Table 5, 72 h exposure, MTT): 1700 ± 170 nM; GI50 (MCF10A (normal breast); [6]): 290 ± 30 nM; GI50 ([5]; Table 5, 72 h exposure, MTT): 580 ± 510 nM; GI50 (H460 (lung carcinoma); Table 5, 72 h exposure, MTT): 1400 ± 600 nM; GI50 (A431 (skin carcinoma); Table 5, 72 h exposure, MTT): 460 ± 150 nM"
"C#CC(=O)N(c1ccccc1)C(C(=O)NC1CCCCC1)c1ccc(OC)c(OC)c1 (racemic) [Compound 21, (RS)-N-(2-(Cyclohexylamino)-1-(3,4-dimethoxyphenyl)-2-oxoethyl)-N-phenylpropiolamide]",610 ± 250,530 ± 41,730 ± 130,440 ± 140,1600 ± 180,270 ± 29,1500 ± 120,–,540 ± 120,2800 ± 1100,1000 ± 290,–,–,–,5100 ± 400,–
(RS)-N-(2-(Cyclohexylamino)-2-oxo-1-phenylethyl)-N-phenylbut-2-enamide [Compound 16d],–,–,–,–,–,–,–,–,–,–,–,sufficiently promising activity,–,–,–,"GI50 ([1]; Table 5, 72 h exposure, MTT): 8600 ± 2300 nM; GI50 (HT29 (colon carcinoma); Table 5, 72 h exposure, MTT): 15000 ± 1000 nM; GI50 ([2]; average over the cell lines of Table 5): 9400 nM; GI50 (U87 (glioblastoma); Table 5, 72 h exposure, MTT): 16000 nM; GI50 ([3]; Table 5, 72 h exposure, MTT): 4500 ± 300 nM; GI50 (SJ-G2 (glioblastoma); Table 5, 72 h exposure, MTT): 13000 ± 1000 nM; GI50 (BE2-C (neuroblastoma); Table 5, 72 h exposure, MTT): 2600 ± 300 nM; GI50 (MCF-7 (breast carcinoma); Table 5, 72 h exposure, MTT): 4600 ± 1300 nM; GI50 (MCF10A (normal breast); [6]): 7500 ± 1800 nM; GI50 ([4]; Table 5, 72 h exposure, MTT): 14000 ± 2000 nM; GI50 ([5]; Table 5, 72 h exposure, MTT): 12000 nM; GI50 (H460 (lung carcinoma); Table 5, 72 h exposure, MTT): 13000 ± 300 nM; GI50 (A431 (skin carcinoma); Table 5, 72 h exposure, MTT): 2200 ± 100 nM"
"O=C(NC1CCCCC1)C(c1ccccc1)N(C(=O)CC(F)(F)F)c1ccccc1 (racemic) [Compound 16g, (RS)-N-(2-(Cyclohexylamino)-2-oxo-1-phenylethyl)-3,3,3-trifluoro-N-phenylpropanamide]",4800 ± 400,5900 ± 200,12000 ± 1000,5900 ± 100,11000 ± 1000,6900 ± 600,8000 ± 2000,10000 ± 300,6500 ± 200,6000 ± 500,4300 ± 300,sufficiently promising activity,–,7200,5100 ± 500,–
"C#CC(=O)N(c1ccccc1)C(C(=O)NCc1ccccc1)c1ccccc1 (racemic) [Compound 17a, (RS)-N-(2-(Benzylamino)-2-oxo-1-phenylethyl)-N-phenylpropiolamide]",1000 ± 10,170 ± 3,130 ± 17,150 ± 9,2500 ± 100,1400 ± 300,1700 ± 200,160,100 ± 34,2000 ± 500,970 ± 200,sufficiently promising activity,sub-micro molar,970,1400 ± 400,–

# More lines, main results first:
"GI50 ([1]; Homo sapiens, DU-145, 72 h) [nM]","GI50 (HT29 (colon carcinoma); Homo sapiens, HT-29, 72 h) [nM]",GI50 (U87 (glioblastoma); 72 h) [nM],GI50 ([3]; 72 h) [nM],"GI50 (SJ-G2 (glioblastoma); SJ-G2, 72 h) [nM]","GI50 (BE2-C (neuroblastoma); Homo sapiens, BE(2)-C, 72 h) [nM]","GI50 (MCF-7 (breast carcinoma); Homo sapiens, MCF7, 72 h) [nM]","GI50 ([4]; Mus musculus, 72 h) [nM]","GI50 ([5]; Homo sapiens, A2780, 72 h) [nM]","GI50 (H460 (lung carcinoma); Homo sapiens, NCI-H460, 72 h) [nM]","GI50 (A431 (skin carcinoma); Homo sapiens, A-431, 72 h) [nM]",Compound,activity in initial screen [2],levels of toxicity [2],GI50 [2] [nM],"GI50 (MCF10A (normal breast); Homo sapiens, MCF-10A, 72 h) [nM]",other results
200 ± 69,200 ± 20,220,200 ± 20,760 ± 570,200 ± 6.7,1200 ± 33,–,220 ± 17,2200 ± 200,590 ± 260,"C#CC(=O)N(c1ccc(OC)cc1)C(C(=O)NC1CCCCC1)c1ccccc1 (racemic) [Compound 19, (RS)-N-(2-(Cyclohexylamino)-2-oxo-1-phenylethyl)-N-(4-methoxyphenyl)propiolamide]",–,–,–,3300 ± 520,–
320 ± 40,470 ± 90,270 ± 30,500 ± 100,3000 ± 200,1800 ± 400,2700 ± 130,480 ± 60,330 ± 110,3000 ± 400,2100 ± 300,"C#CC(=O)N(c1ccccc1)C(C(=O)NCC(=O)OCC)c1ccccc1 (racemic) [Compound 18a, (RS)-Ethyl (2-phenyl-2-(N-phenylpropiolamido)acetyl)glycinate]",sufficiently promising activity,sub-micro molar,1800,6600 ± 1000,–

# From publication PMC9061180 (RSC Advances, 2019)
